This note sets out measurements from ChEMBL document CHEMBL3352342, “Nucleotide-binding oligomerization domain (NOD) inhibitors: a rational approach toward inhibition of NOD signaling pathway” (J Med Chem, 2014).

Some results are limits rather than exact numbers.

Assay [1] concerns the target Nucleotide-binding oligomerization domain-containing protein 2 (Homo sapiens, UniProt Q9HC29). Kind of assay: Inhibition of NOD2 (unknown origin) expressed in HEK293T cells coexpressing NF-kappaB driven luciferase reporter gene by HTS primary assay. Type of assay: cell-based, HEK-293T.
Assay [2] addresses T1, Nucleotide-binding oligomerization domain-containing protein 1 (Homo sapiens, UniProt Q9Y239).
T1 sequence (Q9Y239 whole entry): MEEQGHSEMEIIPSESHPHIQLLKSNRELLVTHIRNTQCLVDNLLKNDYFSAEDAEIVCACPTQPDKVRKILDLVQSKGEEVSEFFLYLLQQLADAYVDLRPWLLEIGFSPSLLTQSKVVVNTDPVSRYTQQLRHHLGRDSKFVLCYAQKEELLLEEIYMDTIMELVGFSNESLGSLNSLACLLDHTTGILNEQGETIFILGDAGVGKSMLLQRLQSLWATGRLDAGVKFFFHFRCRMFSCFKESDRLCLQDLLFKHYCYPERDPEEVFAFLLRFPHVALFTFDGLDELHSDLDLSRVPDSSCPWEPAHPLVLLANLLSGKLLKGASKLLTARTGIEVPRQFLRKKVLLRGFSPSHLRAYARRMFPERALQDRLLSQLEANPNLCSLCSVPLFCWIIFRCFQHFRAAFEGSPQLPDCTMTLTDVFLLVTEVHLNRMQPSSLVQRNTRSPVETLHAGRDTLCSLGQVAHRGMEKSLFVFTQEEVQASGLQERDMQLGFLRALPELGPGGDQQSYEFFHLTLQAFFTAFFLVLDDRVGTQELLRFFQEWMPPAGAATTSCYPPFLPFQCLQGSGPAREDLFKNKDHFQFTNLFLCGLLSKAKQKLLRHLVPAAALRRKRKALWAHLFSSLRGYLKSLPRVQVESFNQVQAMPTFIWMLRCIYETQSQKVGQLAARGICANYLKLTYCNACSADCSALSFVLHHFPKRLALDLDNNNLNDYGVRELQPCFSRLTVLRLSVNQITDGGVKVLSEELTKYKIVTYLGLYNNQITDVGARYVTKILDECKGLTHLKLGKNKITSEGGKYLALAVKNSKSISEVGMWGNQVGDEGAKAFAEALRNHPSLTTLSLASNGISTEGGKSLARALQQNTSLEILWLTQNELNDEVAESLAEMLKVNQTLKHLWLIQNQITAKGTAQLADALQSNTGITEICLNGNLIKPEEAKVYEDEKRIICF
Kind of assay: Inhibition of NOD1 (unknown origin) expressed in HEK293T cells coexpressing NF-kappaB driven luciferase reporter gene by HTS primary assay. Type of assay: cell-based, HEK-293T.

Chain of Nucleotide-binding oligomerization domain-containing protein 2 (Q9HC29 whole entry, the tested form may be a part): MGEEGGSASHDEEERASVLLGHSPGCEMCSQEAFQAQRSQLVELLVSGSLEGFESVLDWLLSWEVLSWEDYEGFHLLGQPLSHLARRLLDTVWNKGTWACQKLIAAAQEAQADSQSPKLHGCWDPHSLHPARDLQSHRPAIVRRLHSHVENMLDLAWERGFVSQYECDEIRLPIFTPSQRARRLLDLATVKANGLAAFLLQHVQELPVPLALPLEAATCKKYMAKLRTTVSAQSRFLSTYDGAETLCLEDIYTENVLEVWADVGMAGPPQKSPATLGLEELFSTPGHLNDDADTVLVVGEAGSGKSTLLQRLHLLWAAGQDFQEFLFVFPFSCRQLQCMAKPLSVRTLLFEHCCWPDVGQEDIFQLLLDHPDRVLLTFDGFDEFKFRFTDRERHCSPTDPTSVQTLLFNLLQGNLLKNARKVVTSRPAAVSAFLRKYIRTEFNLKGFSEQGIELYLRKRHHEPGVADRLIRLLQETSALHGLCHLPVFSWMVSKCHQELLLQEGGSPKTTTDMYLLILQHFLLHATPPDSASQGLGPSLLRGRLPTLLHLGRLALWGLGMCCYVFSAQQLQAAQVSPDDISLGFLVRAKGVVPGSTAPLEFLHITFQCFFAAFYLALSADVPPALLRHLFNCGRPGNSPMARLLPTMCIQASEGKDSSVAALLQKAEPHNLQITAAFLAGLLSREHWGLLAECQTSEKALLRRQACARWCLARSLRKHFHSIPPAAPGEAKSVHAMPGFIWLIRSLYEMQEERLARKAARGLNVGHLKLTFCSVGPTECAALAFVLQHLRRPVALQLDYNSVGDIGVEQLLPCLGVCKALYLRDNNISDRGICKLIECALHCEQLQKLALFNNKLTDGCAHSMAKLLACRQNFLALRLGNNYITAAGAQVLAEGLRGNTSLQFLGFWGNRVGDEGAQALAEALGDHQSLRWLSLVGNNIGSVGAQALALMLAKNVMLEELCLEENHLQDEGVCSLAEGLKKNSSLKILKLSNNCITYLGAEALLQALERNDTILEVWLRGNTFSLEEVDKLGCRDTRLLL

Turning to `Cc1ccc(S(=O)(=O)n2c(N)nc3ccccc32)cc1`, the IC50 – broadly, the midpoint of a concentration-inhibition curve – in assay [1] was over 20000 nM.
For `C/C=C/Cn1c(SCCCc2ccccc2)nc2c1c(=O)[nH]c(=O)n2C`, in assay [1], the IC50 came to 12700 nM.
Compound `CCCCCn1c(SCCc2ccccc2)nc2c1c(=O)[nH]c(=O)n2C` came in with an IC50 in assay [1] of over 20000 nM.
Take `O=C(Cn1c(CCNC(=O)c2ccccc2)nc2ccccc21)Nc1ccc2c(c1)CCC2`: in assay [2], the IC50 came to 3300 nM. This counts as single-digit micromolar.
Turning to `CC(C)c1cccc(NC(=O)Cn2c(CCNC(=O)c3ccccc3)nc3ccccc32)c1`, in assay [2], the IC50 worked out at 800 nM.
In the case of `O=C(Cn1c(CCNC(=O)c2ccccc2)nc2ccccc21)Nc1ccc2ccccc2c1`, the IC50 in assay [2] came to 1600 nM. Against the preceding compound, the IC50 is about 2-fold higher.
Compound `O=C(Cn1c(CCNC(=O)c2ccccc2)nc2cc(Cl)ccc21)Nc1ccc2c(c1)CCC2` came in with an IC50 in assay [2] of 1300 nM.
With `O=C(Cn1c(CCNC(=O)c2ccc3ccccc3c2)nc2ccccc21)Nc1ccc2c(c1)CCC2`, the IC50 in assay [2] is 3400 nM.
For `CN(CCc1nc2ccccc2n1CC(=O)Nc1ccc2c(c1)CCC2)C(=O)c1ccccc1`, in assay [2], the IC50 turned out to be 400 nM.
On the same count and under the same terms, with `CN(CCc1nc2ccccc2n1CC(=O)Nc1ccc2c(c1)CCC2)C(=O)c1ccc2ccccc2c1` the figure was 200 nM.
